Series [1] has as its target T1, ATP-dependent translocase ABCB1 (Homo sapiens, UniProt P08183). Briefly: Inhibition of P-glycoprotein in human MCF7/ADR cells assessed as daunomycin IC50 at 100 uM after 2 hrs. In kind it is cell-based. As to conditions: nci/adr-res.
In series [2] the target is T1, ATP-dependent translocase ABCB1. The experiment in a line: Inhibition of P-glycoprotein in human MCF7/ADR cells assessed as increase in [3H]-DNM accumulation at 100 uM after 2 hrs relative untreated control. The format is cell-based. Also noted: Activity: scale not given: the % may be the effect or the level left. As to conditions: nci/adr-res.
Series [3] shares this target. The experiment in a line: (§1) Inhibition of P-glycoprotein in human MCF7/ADR cells assessed as reduction in [3H]-DNM efflux ratio at 100 uM after 1 hr relative untreated control. In kind it is cell-based, NCI/ADR-RES. As to conditions: nci/adr-res, 1 h, 100 µM.
For series [4], the system named is NCI/ADR-RES. The experiment in a line: Effect on P-glycoprotein expression in human MCF7/ADR cells at 100 uM after 2 hrs by Western blot analysis. In kind it is functional, cell-based. On the technique in general: In western blotting, separated proteins are transferred to a membrane and probed.
Series [5] in a line: Elimination rate constant in Sprague-Dawley rat at 5 mg/kg, iv. The format is ADME, organism-based. Also noted: dose 5 mg/kg, route intravenous. As to conditions: in vivo.
Series [6] is described as follows: Elimination half life in Sprague-Dawley rat at 15 mg/kg, po. In kind it is ADME, organism-based. Also on record: dose 15 mg/kg, route oral. As to conditions: in vivo, read-out: beta t1/2 (converted).
A short description of series [7]: Elimination half life in Sprague-Dawley rat at 5 mg/kg, iv. In kind it is ADME, organism-based. Also on record: dose 5 mg/kg, route intravenous. The conditions noted are these: in vivo, read-out: beta t1/2 (converted).
The test system of series [8] is Mus musculus. The experiment in a line: Toxicity in human A549 cells xenografted in BALB/c athymic nude male mouse assessed as maximum weight loss at 10 mg/kg, po in presence of 40 mg/kg, po PTX administered on day 1, 5, 9 and 13 post tumor implantation. In kind it is organism-based. As to conditions: in vivo. On the technique in general: Xenograft models place foreign cells or tissue in a host animal.

Series [9] deals with P-glycoprotein (ABCB1) (Homo sapiens, UniProt P08183). The description is as §1. In kind it is cell-based, NCI/ADR-RES. The conditions noted are these: MCF7/ADR cells (NCI/ADR-RES), probe [3H]-DNM, read-out: Activity.
P-glycoprotein (ABCB1), sequence (P08183 whole entry): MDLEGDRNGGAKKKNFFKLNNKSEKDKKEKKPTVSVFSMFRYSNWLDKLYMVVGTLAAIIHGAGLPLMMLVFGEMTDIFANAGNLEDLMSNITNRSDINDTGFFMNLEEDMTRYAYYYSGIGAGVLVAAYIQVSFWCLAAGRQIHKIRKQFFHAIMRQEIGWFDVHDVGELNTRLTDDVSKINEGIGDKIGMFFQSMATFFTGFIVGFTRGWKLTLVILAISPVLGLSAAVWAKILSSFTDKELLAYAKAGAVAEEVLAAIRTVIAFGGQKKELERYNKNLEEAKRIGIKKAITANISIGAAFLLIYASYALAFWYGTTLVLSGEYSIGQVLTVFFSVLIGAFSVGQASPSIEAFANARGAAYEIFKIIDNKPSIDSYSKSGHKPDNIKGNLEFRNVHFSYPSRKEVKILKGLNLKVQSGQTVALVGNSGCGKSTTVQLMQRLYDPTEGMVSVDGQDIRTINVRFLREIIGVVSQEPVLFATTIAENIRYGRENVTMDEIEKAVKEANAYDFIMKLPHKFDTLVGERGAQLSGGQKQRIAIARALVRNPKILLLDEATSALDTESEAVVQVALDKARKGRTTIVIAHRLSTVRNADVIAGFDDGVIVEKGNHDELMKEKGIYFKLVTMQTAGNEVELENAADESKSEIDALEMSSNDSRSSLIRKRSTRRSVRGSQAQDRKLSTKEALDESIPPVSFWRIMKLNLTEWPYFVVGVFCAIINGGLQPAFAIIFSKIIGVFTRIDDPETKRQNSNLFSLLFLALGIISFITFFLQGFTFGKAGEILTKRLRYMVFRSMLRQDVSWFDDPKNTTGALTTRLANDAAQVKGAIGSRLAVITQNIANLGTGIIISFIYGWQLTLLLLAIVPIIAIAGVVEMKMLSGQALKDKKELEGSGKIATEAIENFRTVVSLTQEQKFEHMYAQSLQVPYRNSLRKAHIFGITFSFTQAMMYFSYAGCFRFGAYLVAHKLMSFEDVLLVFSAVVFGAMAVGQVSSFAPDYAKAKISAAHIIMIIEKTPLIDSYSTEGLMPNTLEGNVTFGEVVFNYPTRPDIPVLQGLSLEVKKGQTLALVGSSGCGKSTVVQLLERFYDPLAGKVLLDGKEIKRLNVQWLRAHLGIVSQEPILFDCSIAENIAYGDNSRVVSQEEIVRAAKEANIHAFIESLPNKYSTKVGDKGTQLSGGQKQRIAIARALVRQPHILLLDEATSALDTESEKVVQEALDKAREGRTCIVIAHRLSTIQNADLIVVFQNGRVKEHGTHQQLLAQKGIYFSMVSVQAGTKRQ
Series [10] relates to A549. Briefly: Anticancer activity against human A549 cells xenografted in BALB/c athymic nude male mouse assessed as mouse survival rate at 10 mg/kg, po in presence of 40 mg/kg, po PTX administered on day 1, 5, 9 and 13 post tumor implantation. In kind it is functional.
The nature of series [11]: Tmax in Sprague-Dawley rat at 15 mg/kg, po. The conditions noted are these: in vivo. In kind it is ADME, organism-based. Also noted: dose 15 mg/kg, route oral.
Series [12] in a line: Initial drug concentration in Sprague-Dawley rat blood at 5 mg/kg, iv. The format is ADME, organism-based. Also on record: dose 5 mg/kg, route intravenous.
Series [13] concerns A549. The experiment in a line: Anticancer activity against human A549 cells xenografted in BALB/c athymic nude male mouse assessed as mouse tumor growth inhibition rate at 10 mg/kg, po in presence of 40 mg/kg, po PTX administered on day 1, 5, 9 and 13 post tumor implantation. The format is functional.
Series [14] has as its system A549. The experiment in a line: Anticancer activity against human A549 cells xenografted in BALB/c athymic nude male mouse assessed as tumor growth inhibition rate at 5 mg/kg, po in presence of 40 mg/kg, po PTX administered on day 1, 5, 9 and 13 post tumor implantation. In kind it is functional.
Series [15] in a line: Elimination rate constant in Sprague-Dawley rat at 15 mg/kg, po. The format is ADME, organism-based. Also on record: dose 15 mg/kg, route oral. As to conditions: in vivo.
Series [16] is described as follows: AUC (0 to t) in Sprague-Dawley rat at 15 mg/kg, po. The conditions noted are these: plasma. Also on record: dose 15 mg/kg, route oral. The format is ADME, organism-based.
A short description of series [17]: Absolute bioavailability in Sprague-Dawley rat at 15 mg/kg, po. The format is ADME, organism-based. The conditions noted are these: in vivo.
The subject of series [18] is Rattus norvegicus. Briefly: Absolute bioavailability in Sprague-Dawley rat at 5 mg/kg, iv. The format is ADME, organism-based. The conditions noted are these: in vivo.
The nature of series [19]: AUC (0 to t) in Sprague-Dawley rat at 5 mg/kg, iv. In kind it is ADME, organism-based. Also noted: dose 5 mg/kg, route intravenous. As to conditions: plasma.
Series [20] deals with A549. Briefly: Anticancer activity against human A549 cells xenografted in BALB/c athymic nude male mouse assessed as mouse survival rate at 5 mg/kg, po in presence of 40 mg/kg, po PTX administered on day 1, 5, 9 and 13 post tumor implantation. In kind it is functional.
Series [21] concerns Mus musculus. Briefly: Toxicity in human A549 cells xenografted in BALB/c athymic nude male mouse assessed as maximum weight loss at 5 mg/kg, po in presence of 40 mg/kg, po PTX administered on day 1, 5, 9 and 13 post tumor implantation. The format is organism-based. As to conditions: in vivo.
Series [22] can be described thus: Cmax in Sprague-Dawley rat at 15 mg/kg, po. The format is ADME, organism-based. Also noted: dose 15 mg/kg, route oral. As to conditions: in vivo.

Activity calls are given as the source filed them. No cut-off for these calls is given here.

Broadly, the Tmax is the time at which the peak concentration occurs. In general, TGI refers to how far tumour growth fell short of that in controls. One may read the AUC(0-t) as exposure summed from dosing to a finite time, without extrapolation to infinity. The bioavailability is dose-corrected exposure relative to a reference, in per cent. One may read the Cmax as the highest concentration seen after dosing.

T1 sequence (P08183 whole entry): as above

On to `COc1cccc2c(=O)c3c(OCC4CS4)cc(OCC4CS4)cc3oc12` (configuration not stated), for which the “inhibition (INH)” value in series [1] is on record as “Active”.
The same measure, in the same setting: for `COc1cccc2c(=O)c3c(O)cc(OCC(O)CCl)cc3oc12` (configuration not stated) the value was “Active”; for `COc1cccc2c(=O)c3c(O)cc(OCC(S)CCl)cc3oc12` (configuration not stated), “Active”.
Consider `COc1ccc(CCN(C)CCCC(C#N)(c2ccc(OC)c(OC)c2)C(C)C)cc1OC` (configuration not stated) [VERAPAMIL], for which the “inhibition (INH)” value in series [1] is on record as “Active”. Moreover, in series [2], the Activity is given as 319%.
`COc1cccc2c(=O)c3c(O)cc(OCC4CS4)cc3oc12` (configuration not stated): in series [1], the “inhibition (INH)” value is reported as “Active”.
The same measure, in the same setting: for `O=c1c2ccccc2sc2cc(OCC(S)CCl)cc(O)c12` (configuration not stated) the value was “Active”; for `O=c1c2ccccc2oc2cc(OCC(O)CO)cc(O)c12` (configuration not stated), “Active”.
Same read-out and setting: for `O=c1c2ccccc2oc2cc(OCC3CS3)cc(OCC3CS3)c12` (configuration not stated) the value was “Active”.
For `COc1cc(OCC(O)CCl)cc2oc3ccccc3c(=O)c12` (configuration not stated), the “inhibition (INH)” value is “Active” in [1], “Not Active” in series [3] and “Not Active” in series [2]. Also, the outcome in [4] was inactive.
As for `O=c1c2ccccc2sc2cc(OCC(O)CCl)cc(O)c12` (configuration not stated), the “inhibition (INH)” value in series [1] is given as “Active”. The k el in series [5] was 0.000569 s⁻¹; in [15], 0.000539 s⁻¹. Moreover, the figures for the half-life in series [6] and in series [7] were 23.4 min and 21 min, respectively. In addition, the figures for the Activity in series [8], in series [2] and in series [21] were 3.52%, 707% and 6.19%, respectively. For the same molecule, the inhibition at 1 h, 100 µM in [9] amounted to 70.4%. Also, in [4], the outcome was inactive. For the same molecule, the Survival in series [10] amounted to 100%; in series [20], 80%. In series [11], the time to peak (Tmax) was 12.6 min. For the same molecule, the C0 in [12] is 44.3 µg/mL. In addition, the inhibition of tumour growth (TGI) was 52.6% in [13] and 61.6% in series [14]. Further, the AUC(0-t) in series [16] came out at 0.023 µg·h/mL; in series [19], 1.25 µg·h/mL. For the same molecule, the bioavailability in [17] stood at 0.6%. Moreover, the F in series [18] was 100%. Further, the Cmax in series [22] was 0.049 µg/mL.
For the molecule `O=c1c2ccccc2oc2cc(OCC(O)CCl)cc(O)c12` (configuration not stated), the “inhibition (INH)” value in series [1] is given as “Active”.
For `COc1cccc2c(=O)c3c(O)cc(OCC(O)CO)cc3oc12` (configuration not stated), the “inhibition (INH)” value in series [1] is “Active”.
The same measure, in the same setting: the value for `O=c1c2ccccc2sc2cc(OCC3CS3)cc(O)c12` (configuration not stated) was “Active”.

For the origin of these results see ChEMBL document CHEMBL3414426, “Xanthone analogues as potent modulators of intestinal P-glycoprotein” (Eur J Med Chem, 2015).
